Values after ≈ are worked out from the molar mass of the structure shown.
How the values were obtained:
[1] = target: T1, Glutathione S-transferase omega-1 (Mus musculus) (UniProt O09131); assay: Inhibition of GSTO1-1 in mouse bone marrow derived macrophage cells assessed as reduction in LPS-induced IL-1beta release by measuring IL1 beta level at 5 uM pretreated with LPS for 3 hrs followed by compound addition and measured after 1 hr by ELISA relative to control; parameters: scale not given: the % may be the effect or the level left
T1 sequence (whole entry): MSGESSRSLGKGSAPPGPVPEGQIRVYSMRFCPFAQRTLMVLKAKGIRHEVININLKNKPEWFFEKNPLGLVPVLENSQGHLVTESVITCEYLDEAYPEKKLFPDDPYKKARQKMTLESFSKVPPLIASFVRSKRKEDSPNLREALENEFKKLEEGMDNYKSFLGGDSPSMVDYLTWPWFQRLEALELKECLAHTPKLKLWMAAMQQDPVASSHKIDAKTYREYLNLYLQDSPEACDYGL

[2] = target: T2, Glutathione S-transferase omega-1 (Homo sapiens) (UniProt P78417)
T2 sequence (whole entry): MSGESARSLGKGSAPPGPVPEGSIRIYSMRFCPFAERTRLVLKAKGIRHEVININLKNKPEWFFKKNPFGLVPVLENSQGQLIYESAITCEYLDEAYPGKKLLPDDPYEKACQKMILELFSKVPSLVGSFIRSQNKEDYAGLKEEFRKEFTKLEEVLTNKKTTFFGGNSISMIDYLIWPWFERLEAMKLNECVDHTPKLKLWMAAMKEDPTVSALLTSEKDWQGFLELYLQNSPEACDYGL
Description: Inhibition of recombinant GSTO1-1 (unknown origin) expressed in Escherichia coli assessed as Kinact using S-(4-nitrophenacyl)glutathione as substrate preincubated for 1 to 6 mins followed by substrate addition by spectrophotmetric analysis

[3] = target: T3, Glutathione S-transferase omega-1 (Homo sapiens, UniProt P78417); assay: Inhibition of recombinant GSTO1-1 (unknown origin) expressed in Escherichia coli using S-(4-nitrophenacyl)glutathione as substrate preincubated for 2 mins followed by substrate addition by 4-NPG assay
T3 sequence (P78417 whole entry): T2 sequence (whole entry)

[4] = target: T3, Glutathione S-transferase omega-1; assay: Inhibition of recombinant GSTO1-1 (unknown origin) expressed in Escherichia coli assessed as inhibitor constant using S-(4-nitrophenacyl)glutathione as substrate preincubated for 1 to 6 mins followed by substrate addition by spectrophotmetric analysis
[5] = Cmax in Swiss mouse at 30 […], ip measured at 5 mins post dose by UPLC-MS analysis; assay type: ADME, organism-based; parameters: route intraperitoneal; conditions: in vivo
[6] = Half life in Swiss mouse at 30 mg/kg, ip after 0.083 to 24 hrs by UPLC-MS analysis; assay type: ADME, organism-based; conditions: in vivo
[7] = Drug concentration in Swiss mouse plasma at 30 mg/kg, ip measured up to 4 hrs post dose by UPLC-MS analysis; assay type: ADME, organism-based
[8] = Drug level in Swiss mouse plasma at 30 mg/kg, ip after 5 mins by UPLC-MS analysis; assay type: ADME, organism-based
[9] = Drug concentration in Swiss mouse plasma at 30 mg/kg, ip measured at 1 hr post dose by UPLC-MS analysis; assay type: ADME, organism-based
[10] = Stability in human liver microsomes assessed as drug degradation at 1 uM incubated for 60 mins in absence of NADPH by UPLC-MS analysis; assay type: ADME, Microsome; conditions: 1 h
[11] = Half life in mouse liver microsomes at 1 uM incubated for 60 mins in presence of NADPH by UPLC-MS analysis; assay type: ADME, Microsome
[12] = Kinetic solubility of compound in water after 30 mins by nephelometry; assay type: physicochemical; conditions: read-out: Kinetic_solubility
[13] = Half life in human liver microsomes at 1 uM incubated for 60 mins in presence of NADPH by UPLC-MS analysis; assay type: ADME, Microsome
[14] = Stability in mouse liver microsomes assessed as drug degradation at 1 uM incubated for 60 mins in absence of NADPH by UPLC-MS analysis; assay type: ADME, Microsome; conditions: 1 h
[15] = Kinetic solubility of compound in pH 7.4 phosphate buffer solution after 30 mins by nephelometry; assay type: physicochemical; conditions: read-out: Kinetic_solubility
[16] = Drug concentration in Swiss mouse plasma at 30 mg/kg, ip measured up to 2 hrs post dose by UPLC-MS analysis; assay type: ADME, organism-based

| Activity [1] [%] | IC50 [3] [µM] | SMILES | further results |
| --- | --- | --- | --- |
| 43.7 | 1.2 | CN(C)S(=O)(=O)c1cc(C2CO2)ccc1Cl (stereo not given) | Kinact [2]: 0.47 min⁻¹; Ki [4]: 5 µM |
|  | > 100 | C/C=C/C(=O)Nc1ccc(Cl)c(S(=O)(=O)N(C)C)c1 |  |
|  | 0.13 | CN(C)S(=O)(=O)c1cc(NC(=O)CCl)ccc1I |  |
|  | 0.71 | CN(C)S(=O)(=O)c1cc(NC(=O)CCl)ccc1-c1ccccc1 |  |
|  | > 100 | CN(C)S(=O)(=O)c1cc(NCC#N)ccc1Cl |  |
| 3.4 | 0.25 | O=C(CCl)Nc1ccc(C(F)(F)F)c(S(=O)(=O)N2CCOCC2)c1 | Kinact [2]: 0.85 min⁻¹; Ki [4]: 0.61 µM; Cmax [5]: 6370 nM; half-life [6]: 84 min; concentration at 4 h [7]: 6.5 nM |
| 61.3 | 0.08 | COCCN(C)S(=O)(=O)c1cc(NC(=O)CCl)ccc1Cl | Kinact [2]: 0.61 min⁻¹; Ki [4]: 6.9 µM |
|  | 0.58 | CNS(=O)(=O)c1cc(NC(=O)CCl)ccc1Cl |  |
| 41.5 | 0.16 | COCCCN(C)S(=O)(=O)c1cc(NC(=O)CCl)ccc1Cl |  |
| 24.3 | 0.16 | O=C(CCl)Nc1ccc(Cl)c(S(=O)(=O)N2CCOCC2)c1 | Kinact [2]: 8.1 min⁻¹; Ki [4]: 6.7 µM; concentration at 5 min [8]: 3870 nM; concentration at 1 h [9]: 7.1 nM |
| 92.8 |  | C=CC(=O)Nc1ccc(Cl)c(S(=O)(=O)N(C)C)c1 |  |
| 66.8 |  | CN(C)S(=O)(=O)c1cc(NC(=O)CCl)ccc1Cl | Stability [10]: Unstable; half-life at 1 µM [11]: 7 min; Cmax [5]: 9380 nM; concentration at 1 h [9]: 32.1 nM; solubility kinetic at 0.5 h [12]: 50 to 100 µg/mL (≈ 161 to 321 µM); half-life at 1 µM [13]: < 2 min; Stability [14]: Unstable; solubility kinetic at 0.5 h [15]: 50 to 100 µg/mL (≈ 161 to 321 µM) |
|  | 0.21 | CN(C)S(=O)(=O)c1cc(NC(=O)CCl)ccc1OC(F)(F)F |  |
| 47.8 | 0.03 | COCCNS(=O)(=O)c1cc(NC(=O)CCl)ccc1Cl | Kinact [2]: 0.8 min⁻¹; Ki [4]: 2.5 µM |
|  | 0.11 | COCCCNS(=O)(=O)c1cc(NC(=O)CCl)ccc1Cl | Kinact [2]: 1.3 min⁻¹; Ki [4]: 9.9 µM |
|  | > 10 | CC(Cl)C(=O)Nc1ccc(Cl)c(S(=O)(=O)N(C)C)c1 (stereo not given) |  |
|  | > 100 | CN(C)S(=O)(=O)c1cc(CC2CO2)ccc1Cl (stereo not given) |  |
| 36 | 0.07 | CC(C)NS(=O)(=O)c1cc(NC(=O)CCl)ccc1Cl | Kinact [2]: 3 min⁻¹; Ki [4]: 4.8 µM |
|  | 0.18 | CN(CCO)S(=O)(=O)c1cc(NC(=O)CCl)ccc1Cl |  |
|  | > 100 | CN(C)S(=O)(=O)c1cc(NC(=O)CC#N)ccc1Cl |  |
|  | 0.2 | O=C(CCl)Nc1ccc(Cl)c(S(=O)(=O)NCC2CCCO2)c1 (stereo not given) |  |
|  | 0.15 | CN(C)S(=O)(=O)c1cc(NC(=O)CCl)ccc1Br |  |
|  | > 1000 | CN(C)S(=O)(=O)c1cc(NC(=O)C(N)=O)ccc1Cl |  |
|  | > 10 | CN(C)S(=O)(=O)c1cc(NC(=O)CCCl)ccc1Cl |  |
|  | > 10 | CC(=O)C(=O)Nc1ccc(Cl)c(S(=O)(=O)N(C)C)c1 |  |
|  | 0.34 | O=C(CCl)Nc1ccc(Cl)c(S(=O)(=O)NC2CCOC2)c1 (stereo not given) |  |
| 27.5 | 0.06 | CN(C)S(=O)(=O)c1cc(NC(=O)CCl)ccc1C(F)(F)F | Kinact [2]: 1.1 min⁻¹; Ki [4]: 1.2 µM; concentration at 2 h [16]: 1.5 nM; concentration at 5 min [8]: 11600 nM |
|  | 0.7 | O=C(CCl)Nc1ccc(Cl)c(S(=O)(=O)NCCO)c1 |  |

| SMILES | Activity [1] [%] | IC50 [3] [µM] | further results |
| --- | --- | --- | --- |
| CN(C)S(=O)(=O)c1cc(NC(=O)CF)ccc1Cl |  | > 100 |  |
| CN(C)S(=O)(=O)c1cc(CCS(=O)(=O)F)ccc1Cl |  | > 10 |  |
| CN(C)S(=O)(=O)c1cc(CS(=O)(=O)F)ccc1Cl | 39.8 | 0.8 | Kinact [2]: 2.3 min⁻¹; Ki [4]: 9.6 µM |
| CN(C)S(=O)(=O)c1cc(/C=C/S(=O)(=O)F)ccc1Cl |  | > 10 |  |
| CN(C)S(=O)(=O)c1cc(CCCS(=O)(=O)F)ccc1Cl |  | 3.2 |  |

Source: ChEMBL document CHEMBL4402572, “Development of Benzenesulfonamide Derivatives as Potent Glutathione Transferase Omega-1 Inhibitors” (J Med Chem, 2020)
